# From patent US9562044B2, “2-acylaminothiazole derivative or salt thereof” (ASTELLAS PHARMA INC., priority 2013, dated 2017)
# Counter-ions that a name gives are not always drawn.
# Target: T1, human c-Mpl receptor (Homo sapiens, UniProt P40238)
# T1 construct: expressed in transfected cells
# T1 sequence (P40238 26-635): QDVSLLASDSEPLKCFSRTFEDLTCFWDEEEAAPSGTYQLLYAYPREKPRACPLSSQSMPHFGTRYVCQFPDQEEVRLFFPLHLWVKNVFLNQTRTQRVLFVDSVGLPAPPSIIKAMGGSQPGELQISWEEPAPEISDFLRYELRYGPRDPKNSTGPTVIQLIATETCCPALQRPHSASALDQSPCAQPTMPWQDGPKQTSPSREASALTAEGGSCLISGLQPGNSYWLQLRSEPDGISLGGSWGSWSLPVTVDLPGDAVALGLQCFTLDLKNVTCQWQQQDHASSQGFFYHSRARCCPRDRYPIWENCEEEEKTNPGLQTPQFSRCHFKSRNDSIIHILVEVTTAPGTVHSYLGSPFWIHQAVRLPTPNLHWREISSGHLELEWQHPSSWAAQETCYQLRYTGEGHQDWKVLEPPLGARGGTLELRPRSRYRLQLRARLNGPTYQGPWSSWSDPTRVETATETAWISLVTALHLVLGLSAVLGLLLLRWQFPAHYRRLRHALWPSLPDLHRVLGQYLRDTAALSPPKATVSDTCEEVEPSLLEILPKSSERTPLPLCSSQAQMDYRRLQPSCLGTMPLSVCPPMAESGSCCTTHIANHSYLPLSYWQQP
# Experiment: Human c-Mpl-introduced Ba/F3 cell proliferative activity
# Assay type: cell-based
# Conditions: concentration showing 30% proliferation; 100% = positive control at 1 μM
# Experimental: Evaluation of Human c-Mpl-Introduced Ba/F3 Cell Proliferative Activity
# The human c-Mpl-introduced Ba/F3 cell proliferative activity was measured by the following method.
# As a positive control, 1-(5-{[4-(4-chloro-2-thienyl)-5-{[(2R)-2-methylpyrrolidin-1-yl]methyl}-1,3-thiazol-2-yl]carbamoyl}-3-fluoropyridin-2-yl)piperidine-4-carboxylic acid hydrochloride, which is disclosed as Example 315 in Patent Document 1 and represented by the formula A1, was used. It is known that the compound has a good human c-Mpl-introduced Ba/F3 cell proliferative activity as disclosed in Table 1 of Patent Document 1.
# a) Construction of Human c-Mpl Receptor Expression Vector
# A human c-mpl receptor gene (GenBank Accession No. M90102.1) was introduced into an expression vector pEF-BOS (Nucleic Acids Res. 18, 5322, 1990).
# b) Construction of Cell Stably Expressing Human c-Mpl Receptor
# A human c-Mpl receptor expression vector was introduced into a Ba/F3 cell (RIKEN BRC: RCB0805). For the introduction, an electroporation method was used. pEF-BOS-c-mpl (10 μg), pSV2bsr (1 μg, Kaken Pharmaceutical Co., Ltd.) and 1×10^7 Ba/F3 cells were put into a cuvette having a gap width of 0.4 cm, and electroporated under the conditions of 1.5 kV (25 μF) by a Gene Pulser (registered trademark) (BioRad). The cells were cultured in an RPMI-1640 culture medium containing 0.5% WEHI conditioned media (BD Biosciences) and 10% fetal bovine serum for 3 days, and then cultured in an RPMI-1640 culture medium, to which 10 μg/mL blasticidin had been further added, for 30 days to acquire a drug-resistant clone.
# c) Measurement of Cell Proliferative Activity
# The cells obtained in b) above was cultured in an RPMI-1640 culture medium containing 0.5% WEHI conditioned media, 10% fetal bovine serum, and used. On the day before the experiment, test substances (final concentration of 100 nM to 10 μM) which had been dissolved in a culture medium for assay (RPMI-1640 culture medium containing 10% fetal bovine serum) were added to a 384-well plate (Lot No. 781185, Greiner Bio-One). The cells in the culture medium that had been replaced with a culture medium for assay were dispensed into a 384-well plate, to which the test substances had been added in advance, to 1×10^4 cells/well, and cultured at 37° C. and 5% CO2 overnight. On the experiment day, a solution of a Cell Counting Kit (Dojindo Laboratories) was added to each well of the 384-well plate and cultured at 37° C. and 5% CO2 for about 5 hours. Thereafter, the absorbance (absorption wavelength of 450 nm) of each well was measured using Safire^2™ (TECAN) and used as the index of the number of cells. Further, as a negative control, a well in which the test substance had been not added was prepared.
# The absorbance of the well without the test substance was set to 0%, and the absorbance in the case where the positive control was added at a final concentration of 1 μM was set to 100%. From the absorbance in the case where the test substance had been added, a cell proliferation rate (%) was calculated. From the obtained results, the test substance concentration showing 30% proliferation was calculated as an EC30 value by a logistic regression method.
row,SMILES,Test Example 2 EC30
1,"C[C@@H]1CCCN1Cc1sc(NC(=O)c2cnc(N3CCC(C(=O)O)CC3)cn2)nc1-c1cc(Cl)cs1 [Example 4, 1-(5-{[4-(4-chloro-2-thienyl)-5-{[(2R)-2-methylpyrrolidin-1-yl]methyl}-1,3-thiazol-2-yl]carbamoyl}pyrazin-2-yl)piperidine-4-carboxylic acid dihydrochloride]",0.35 µM
2,CC[C@@H]1CCCN1Cc1sc(NC(=O)c2cnc(N3CCC(C(=O)O)CC3)cn2)nc1-c1cc(F)cc(C(F)(F)F)c1 [Example 115],>10 µM
3,CC[C@@H]1CCCN1Cc1sc(NC(=O)c2cnc(N3CCC(C(=O)O)CC3)cn2)nc1-c1ccc(OC)c(C(F)(F)F)c1 [Example 156],>10 µM
